Data from patent publication US8304238B2, “Cell culture medium and immobilized preparation of cell adhesion protein or peptide” (Nat'l Institute for Environmental Studies, priority 2003, dated 2012).
Where no end group is shown, it is not given here. [ ]: non-standard residue; d: D form. Nle = CCCC[C@H](N)C(=O)O

What was measured:
Format in all cases: cell-based
[1] = test system: alveolar type II epithelial cells (T2 cells); experiment: Adhesion of T2 cells to pseudomatrices dissolved in 50% ethanol and air-dried/immobilized, and competitive inhibition by free peptide; conditions: for Free GRGDSP concentration at which cell adhesion was almost completely inhibited: free peptide 0.25-4.0 mg/ml tested; for Competitive inhibition of cell adhesion by free peptide: 50% ethanol air-dried pseudomatrix, 0.25 mg/ml free AG73 or FIB-1; for Adhesion of T2 cells to pseudomatrix compared with coated FN: 0.1-1.0 μg/well, 24 hours serum-free
Description: 50 μl of 2-20 μg/ml MAST-GRGDSP (Gly-Arg-Gly-Asp-Ser-Pro) (SEQ ID NO: 22) and MMAC-GRGDSP (SEQ ID NO: 22) dissolved in 50% ethanol were poured into wells, and air-dried/immobilized. Next, the wells to which MAST-GRGDSP (SEQ ID NO: 22) and MMAC-GRGDSP (SEQ ID NO: 22) (0.1-1.0 μg/well) were coated were rinsed with the serum-free DMEM medium. T2 cells suspended in the medium at the concentration of 6×10^4 cells/100 μl were seeded, and cultured in a CO2 incubator at 37° C. for 24 hours. Then, the cells were fixed with methanol, stained, and measured its absorbance according to the method in Example 7. A culture wherein FN was coated as a standard material was conducted simultaneously. The cell adhesion on FN was shown as a standard (100%).
In the same manner as in Example 18, MAST-GRGDSP (SEQ ID NO: 22) was dissolved in 50% ethanol, air-dried/immobilized on wells, and T2 cells were seeded/cultured thereon. Separately, just before the cells were seeded, 0.25-4.0 mg/ml of free GRGDSP (SEQ ID NO: 22) peptide was added to the cell suspension, and the culture and the subsequent measurement of absorbance were conducted in the same manner as described above. […] Further, when the applied amount of MAST-GRGDSP (SEQ ID NO: 22) was decreased, the immobilized amount of GRGDSP (SEQ ID NO: 22) decreased, and the competitive inhibition by free GRGDSP (SEQ ID NO: 22) peptide worked more effectively.
(§1) In the same manner as in Example 18, MMAC-GRGDSP (SEQ ID NO: 22) was dissolved in 50% ethanol, air-dried/immobilized on wells, and T2 cells were seeded/cultured thereon. Separately, just before the cells were seeded, 0.25-4.0 mg/ml of free GRGDSP (SEQ ID NO: 22) peptide was added to the cell suspension, and the culture and the subsequent measurement of absorbance were conducted in the same manner as described above.
as §1, with “MBAC/MAST-AG73 and -FIB-1 were” for “MMAC-GRGDSP (SEQ ID NO: 22) was”, “0.25” for “0.25-4.0”, “AG73 or FIB-1” for “GRGDSP (SEQ ID NO: 22)”

[2] = test system: alveolar type II epithelial cells (T2 cells); experiment: Adhesion of T2 cells to pseudomatrix adsorbed/immobilized from DMEM and competitive inhibition by free peptides; conditions: for Cell adhesion ability of immobilized pseudomatrix compared with directly coated FN: 1-10 μg/ml in DMEM, 1-day serum-free culture, excluding 1 μg/ml of MBAC-AG73; for Competitive inhibition of cell adhesion to pseudomatrix by free cell adhesion peptide: pseudomatrix 1-10 μg/ml in DMEM
Description: 200 mg each of hydrophobic binding-adsorptive polymer, MBAC, MAST or MMAC were dispersed into water, and 1 N NaOH solution was added little by little to dissolve them completely. 50 mg of WSC (1-ethyl-3-(3-dimethylamino propyl)carbodiimide, hydrochloride) was added to the resulting solution, and the reaction was conducted for 2 hours. Subsequently, 20 mg of peptide was added, and the reaction was continued with stirring for 2 hours at room temperature. After the reaction was finished, the reactant was subjected to dialysis with water to remove alkaline and low molecules, and then freeze-dried to prepare a pseudomatrix of interest.
Each pseudomatrix prepared in Example 13 to which cell adhesion peptide was bound (MBAC-peptide) was diluted in DMEM medium to the concentration of 1-10 μg/ml, and the resultant solution was poured into a 96-well by 100 μl each, and left still overnight in a CO2 incubator to be adsorbed and immobilized on the wells. Non-adsorbed MBAC-peptides were removed by rinsing well with DMEM medium. Next, T2 cells suspended at the concentration of 6×10^5 cells/ml were seeded in the serum-free DMEM by 100 μl each. After 1-day serum-free culture, T2 cells were fixed with 100 μl of methanol for 5 minutes, and stained with 50 μl of 0.4% crystal violet for 30 minutes. Excessive staining was washed with water, and the number of adhering cells was counted based on the absorbance of cytoplasm (A595).
In the same manner as in Example 14, each pseudomatrix prepared in Example 13 to which cell adhesion peptide was bound (MAST-peptide) was adsorbed and immobilized on a 96-well, and T2 cells were seeded and cultured thereon.

[3] = test system: alveolar type II epithelial cells (T2 cells); experiment: Binding strength (affinity) of immobilized LN peptides to T2 cells relative to immobilized FIB-1 (mixed immobilization, free FIB-1 competition); parameters: key to Binding strength to T2 cells, Comprehensive evaluation: AA: extremely strongly binding/adhering; A: strongly binding/adhering; B: intermediately binding/adhering (as the same degree as FIB-1 peptide); C: more weakly binding/adhering than FIB-1 peptide
Description: Therefore, the amount of FIB-1 peptide was set at 0.25 mg/ml, and AG73 peptide was mixed therewith, while changing its concentration ratio, from 1/1.250 of FIB-1 in an amount which is 0.20 μg/ml, to ½ of FIB-1 in an amount which is 0.125 mg/ml, and the mixture was immobilized on a well wherein a hydrophobic binding-adsorptive polymer MMAC was coated. The amount of cell adhesion in the case where T2 cells were cultured under a serum-free condition for 1 day on the immobilized peptides is shown in FIG. 9, in comparison with the case where the culture was conducted on the immobilized FIB-1, which was set at 100%.
However, in a case that the ratio of FIB-1:AG73 increased to 1:0.02, because T2 cells already transited to be adherent through the immobilized AG73 peptide, free FIB-1 peptide could no longer inhibit the cell adhesion. […] Likewise, with regard to A3G72 and A4G82 peptides, because the mixing ratio at the transitional midpoint=0.1, their binding strength to T2 cells is 10 times as much as that of FIB-1.
The method used in FIGS. 8 and 9 is extremely effective as a convenient method by which a relative order can be measured concerning to the binding strength (affinity) of cell adhesion peptides and the strength of cell adhesion can be considered quantitatively.
In Table 1, the classification is shown based on the results of the affinity (bonding/adhesion strength) between FIB-1 peptide containing RGD amino acid sequence of FN molecule, a binding site to integrin, and T2 cells: laminin α-chain G-domain peptides are classified into class AA, extremely strong binding/adhesion; class A, strong adhesion; class B, adhesion as the same degree as FIB-1; and class C, binding weaker than the described above.

[4] = test system: alveolar type II epithelial cells (T2 cells); experiment: Inhibition of T2 cell adhesion by free peptide different from the immobilized peptide substrate
Description: Results obtained by adding the free peptides different from the immobilized peptides when T2 cells were cultured on the immobilized peptide prepared according to the method in Example 7, were shown in FIG. 8.
When adding the free peptides that were the same as the immobilized peptides in the culture medium, the both (free and immobilized) peptides compete for syndecan of T2 cells and as a result, the cell adhesion is inhibited (see Example 7). So far, four types of syndecans are genetically known. Whether these syndecans are commonly owned or accommodated by each peptide, overlapping only by some degrees, otherwise mutually exclusive, was examined herein.

[5] = test system: alveolar type II epithelial cells (T2 cells); experiment: Inhibition by free cell adhesion peptides of T2 cell adhesion to coated cell adhesion proteins FN, Col I, LN, VN; conditions: free peptide 0.25 mg/ml; serum-free, 1 day
Description: Commercially available FN, LN and VN, usually used as cell adhesion proteins at cell culture, were coated to wells at the concentrations of 5 μg/ml, 10 μg/ml and 10 μg/ml, respectively. In case of Col I (collagen type I), Col I at the concentration of 100 μg/ml, dissolved in 1 mM HCl, was poured into a well, left stand still for a while, and then the solution was removed and air-drying was conducted, and rinsed with the medium, before use. Next, 6×10^5 cells/ml of alveolar type II epithelial cells (T2 cells) suspended in the serum-free DMEM medium was seeded by 100 μl each on a 96-well to which the extracellular matrix was coated, and cultured in a CO2 incubator at 37° C. for 1 day. After the culture was finished, the cells were fixed with 100 μl of methanol for 5 minutes, and stained for 30 minutes with 50 μl of 0.4% crystal violet. Excessive staining was washed with water, then the number of cells adhered to FN, Col I, LN and VN, which had been coated to the wells, was counted based on the absorbance of cytoplasm (A595).
On the other hand, among amino acid sequences of various LN molecules, the sequences that induce cell adhesion are known to be present. […] Then, the number of cells was counted in accordance with the method described above.

Substance: Gly-Arg-Gly-Asp-Ser-Pro (GRGDSP) [reference compound]
- Free GRGDSP concentration at which cell adhesion was almost completely inhibited ([1]; adhesion to MAST-GRGDSP): 4.0 mg/mL
- Free GRGDSP concentration at which cell adhesion was almost completely inhibited ([1]; adhesion to MMAC-GRGDSP): 1.0 to 4.0 mg/mL

Substance: MAST-AG73: pseudomatrix: MAST polymer reacted with AG73 peptide (RKRLQVQLSIRT)
- Competitive inhibition of cell adhesion by free peptide [1]: almost completely inhibited
- Adhesion of T2 cells to pseudomatrix compared with coated FN ([1]; 50% ethanol, air-dried): similarly to the case where FN was coated
- Cell adhesion ability of immobilized pseudomatrix compared with directly coated FN [2]: the same level of cell adhesion ability as in the case where FN was directly coated
- Competitive inhibition of cell adhesion to pseudomatrix by free cell adhesion peptide [2]: competitively inhibited by the free cell adhesion peptide, the degree is lower than the case of MBAC-peptide

Substance: MAST-A4G82X: pseudomatrix: MAST polymer reacted with A4G82X peptide (TLFLAHGRLVF[Nle]; also: peptide reacted with MAST polymer (pseudomatrix))
- Cell adhesion ability of immobilized pseudomatrix compared with directly coated FN [2]: the same level of cell adhesion ability as in the case where FN was directly coated
- Competitive inhibition of cell adhesion to pseudomatrix by free cell adhesion peptide [2]: inhibited by free A4G82 peptide

Substance: MAST-A3G72: pseudomatrix: MAST polymer reacted with A3G72 peptide (KPRLQFSLDIQT)
- Cell adhesion ability of immobilized pseudomatrix compared with directly coated FN [2]: the same level of cell adhesion ability as in the case where FN was directly coated
- Competitive inhibition of cell adhesion to pseudomatrix by free cell adhesion peptide [2]: competitively inhibited by the free cell adhesion peptide, the degree is lower than the case of MBAC-peptide

Substance: MBAC-AG73: pseudomatrix: MBAC polymer reacted with AG73 peptide (RKRLQVQLSIRT)
- Competitive inhibition of cell adhesion by free peptide [1]: almost completely inhibited
- Adhesion of T2 cells to pseudomatrix compared with coated FN ([1]; 50% ethanol, air-dried): similarly to the case where FN was coated
- Competitive inhibition of cell adhesion to pseudomatrix by free cell adhesion peptide [2]: competitively inhibited

Substance: LVLFLNHGHFVA
- Binding strength to T2 cells, Comprehensive evaluation ([3]; classification relative to FIB-1 peptide): B
- Mixing ratio at the transitional midpoint ([3]; peptide:FIB-1 co-immobilized, FIB-1 0.25 mg/ml, loss of inhibition by free FIB-1): about 1
- Inhibition by free peptide of T2 cell adhesion to immobilized AG73 ([4]; AG73 (etc.) immobilized): inhibited the cell adhesion
- Inhibition by free peptide of T2 cell adhesion to immobilized FIB-1 ([4]; FIB-1 immobilized): could inhibit
- Inhibition of adhesion of T2 cells to FN, Col I, LN and VN by free peptide [5]: inhibited adhesion of T2 cells

Substance: MBAC-A3G72: pseudomatrix: MBAC polymer reacted with A3G72 peptide (KPRLQFSLDIQT)
- Competitive inhibition of cell adhesion to pseudomatrix by free cell adhesion peptide [2]: competitively inhibited

Substance: MAST-GRGDSP: pseudomatrix: MAST polymer bound to GRGDSP peptide (also: bound to MAST polymer)
- Adhesion of T2 cells to pseudomatrix compared with coated FN ([1]; 50% ethanol, air-dried): slightly lower than that of the standard cell adhesion protein FN
- Amount of cell adhesion compared with the same peptide bound to MMAC ([1]; 50% ethanol, air-dried, polystyrene wells): larger amount of cell adhesion than that of the same peptide bound to MMAC polymer

Substance: MMAC-GRGDSP: pseudomatrix: MMAC polymer bound to GRGDSP peptide (also: bound to MMAC polymer)
- Adhesion of T2 cells to pseudomatrix compared with coated FN ([1]; 50% ethanol, air-dried): slightly lower than that of the standard cell adhesion protein FN
